Experimental data published in patent US5300491A, “Treatment of protozoal infection” (priority 1992, dated 1994).
Converted amounts (≈) assume the structure as drawn. “And” between values parts separate entries of the source, which are not always exact repeats. Equal values may be shown once. Read-outs that look alike come from different tables or passages of the source. Bridge positions count the residues as written; N and C are the ends. Square brackets hold non-standard residues; d marks the D form. Peptide text beside a SMILES is read from it. * marks the point of attachment. Ileψ(thiazoline)Cys = CC[C@H](C)[C@H](N)C1=N[C@H](C(=O)*)CS1; dOrn = NCCC[C@@H](N)C(=O)O

Assays:
[1] = system: E. histolytica axenic cultures (NIH:200); assay: Axenic culture study of E. histolytica (NIH:200), cell number reduction; assay type: cell-based, Entamoeba histolytica
Procedure: Axenic cultures are isolates of amoeba which have been adapted for growth in the absence of bacteria, i.e. they comprise sterile cultures. E. histolytica axenic cultures (NIH:200) were maintained according to the method of Diamond, J. Parasitol. 54, 1047-56 (1968) in TP-S-1 medium modified by replacing the vitamin solution with 2.5% NCTC 135. […] Amoebae were harvested by cooling tubes at 4° C. for 20 minutes in an ice-bath prior to centrifugation at 1,000 rpm for 8 minutes at 4° C. Assays were performed over 36-48 hours, rather than the 24 hour period used for xenic cultures, due to the more extended division time of axenic cultures. All assays were performed in triplicate.

Trichomonas vaginalis = Trichomonas vaginalis assay of other divalent metal salts of bacitracin (MIC); assay type: cell-based
Procedure: All isolates were treated with either bacitracin or zinc bacitracin.
Prior to being diluted with the medium, the bacitracins were initially solubilized in water to 250 mg/ml. The zinc salt was solubilized in acidified water (60 μl HC1/ml). Duplicate plates of each isolate were prepared. one set of plates was exposed to an aerobic environment; and, the second set was exposed to an anaerobic environment. An Oxoid HP 11 anaerobic gas chamber and BR 38 gas generating kit were used to produce the anaerobic environment.
The procedure of Example IV was repeated, substituting bacitracin salts of the following metals for zinc bacitracin: nickel, cadmium, cobalt, manganese, copper and iron. The MLCs of the bacitracin salts were out of range. However, the MICs indicate that, with the exception of ferrous bacitracin, complexation with a divalent metal salt enhanced the activity of bacitracin.

Tritrichomonas foetus = Tritrichomonas foetus assay (MLC); assay type: cell-based
Procedure: Duplicate plates of each isolate were prepared. One set of plates was exposed to an aerobic environment; and, the second set was exposed to an anaerobic environment. An Oxoid HP 11 anaerobic gas chamber and BR 38 gas generating kit were used to produce the anaerobic environment. […]

Tritrichomonas gallinae = Tritrichomonas gallinae assay (MLC); assay type: cell-based; details: isolate GH85
Procedure: A single T. gallinae isolate was collected and treated with bacitracin or zinc bacitracin in accordance with the procedure of Example IV. Duplicate plates of the isolate were prepared. one plate was exposed to an aerobic environment. The second plate was exposed to an anaerobic environment.

Giardia lamblia = assay type: cell-based
Procedure: A Portland isolate of G. lamblia was treated with bacitracin and zinc bacitracin according to the procedure of Example IV. An Oxoid HP 11 anaerobic gas chamber and BR 38 gas generating kit were used to produce an anaerobic environment. […] The parasites were incubated in the presence of the treating reagent for 2 4 hours. The viability of the parasites was based on morphology and motility.

Micrococcus uteus = details: as obtained from Apothekernes Laboratorium A.S; cited from earlier work
[2] = system: intestinal amoebic infections; details: cited from earlier work
E. histolytica = assay: Amoebiasis clinical study; assay type: in vivo, Human
Procedure: Cysts and trophozoites of E. histolytica were detected initially by wet preparation screening of faeces, and later confirmed by the formal-ether technique. Full parasitological cure was based upon the presentation of 1-2 negative stool samples within one week post treatment.
In a dose-effect segment of the study, two groups of symptomatic E. histolytica cyst or trophozoite passers attending an outpatient clinic for abdominal pains were treated for either ten or five days.
In a dose-duration study, three groups of patients were observed: Group 1 - symptomatic cyst and trophozoite passers; Group 2 - dysenteric patients with bloody diarrheas; and, Group 3 - asymptomatic cyst passers.

G. lamblia = G. lamblia clinical study; assay type: in vivo, Human; details: for patients responding: 200,000 IU daily as tablets for ten days
Excerpt: Based upon this dosage, 6 of the ten metronida-zole-resistant patients in Sweden responded to this regime. In addition, all of the 11 non-selected patients in Romania responded to this regime. Eight of these 11 non-selected patients remained clear of infection for the length of the study.

mouse lymphoma cell = details: cited from earlier work
[3] = system: human peripheral lymphocytes; details: cited from earlier work
spleen cells of rats = details: rat, in vivo; cited from earlier work
[4] = span depending upon culture conditions
[5] = span depending upon culture conditions, converted from IU/ml
[6] = Portland isolate, anaerobic, 24 hours, two lines of values
[7] = Group 1, 9 patients treated for two days
[8] = Group 1, 12 patients treated for 3 days
[9] = Table 5 dose-effect study, symptomatic cyst & trophozoite passers, 100,000 I.U. daily for 5 days, 5 patients
[10] = Table 5 dose-effect study, symptomatic cyst & trophozoite passers, 100,000 I.U. daily for 10 days, 9 patients
[11] = Table 6 dose-duration study, Group 1 symptomatic cyst and trophozoite passers, 1 day, 2 patients
[12] = Table 6 dose-duration study, Group 1 symptomatic cyst and trophozoite passers, 2 days, 9 patients
[13] = Table 6 dose-duration study, Group 1 symptomatic cyst and trophozoite passers, 3 days, 12 patients
[14] = Table 6 dose-duration study, Group 1 symptomatic cyst and trophozoite passers, 5 days, 5 patients
[15] = Table 7 dose-duration study, Group 2 dysentery cases, 3 days, 5 patients
[16] = Table 8 dose-duration study, Group 3 asymptomatic cyst passers, 3 days, 9 patients
[17] = Table 8 dose-duration study, Group 3 asymptomatic cyst passers, 5 days, 9 patients
[18] = 11 non-selected patients in Romania

With `CC[C@H](C)[C@H](N)C1=N[C@H](C(=O)N[C@@H](CC(C)C)C(=O)N[C@H](CCC(=O)O)C(=O)N[C@H](C(=O)N[C@H]2CCCCNC(=O)[C@H](CC(N)=O)NC(=O)[C@@H](CC(=O)O)NC(=O)[C@H](Cc3cnc[nH]3)NC(=O)[C@@H](Cc3ccccc3)NC(=O)[C@H]([C@@H](C)CC)NC(=O)[C@@H](CCCN)NC2=O)[C@@H](C)CC)CS1` [Bacitracin, reference compound] ({Ileψ(thiazoline)Cys}-L[dE]IK[dOrn]I[dF]H[dD]N; lactam 4-C) the “Cell number reduction compared to controls” value (shortened to “Cell number reduction”) ([1]; axenic culture, 2.5 mg/ml) was 76.4%, the “Cell number reduction” value ([1]; axenic culture, 5 mg/ml) was 92.3% and the “Cell number reduction” value ([1]; axenic culture, 10 mg/ml) was 97.7%. The “Cell number reduction” value ([1]; axenic culture, 15 mg/ml) was 99.9%, the killing of amoeba ([1]; axenic culture, 20 mg/ml, 48 hours) was “All amoeba were killed” and the MIC (Trichomonas vaginalis; T. vaginalis isolate 1910) was 10.00 mg/mL. For the same compound, the MIC (Trichomonas vaginalis; T. vaginalis isolate UCH1) was 10.00 mg/mL, the MLC (Tritrichomonas foetus; isolate 121, aerobic) was 28 mg/mL (≈ 19.7 mM) and the MLC (Tritrichomonas foetus; isolate 121, anaerobic) was 28 mg/mL (≈ 19.7 mM). For the same compound, the MLC (Tritrichomonas foetus; isolate 138, aerobic) was 28 mg/mL (≈ 19.7 mM), the MLC (Tritrichomonas foetus; isolate 138, anaerobic) was 28 mg/mL (≈ 19.7 mM) and the MLC (Tritrichomonas foetus; isolate ATCC 30166, aerobic) was 28 mg/mL (≈ 19.7 mM). For the same compound, the MLC (Tritrichomonas foetus; isolate ATCC 30166, anaerobic) was 28 mg/mL (≈ 19.7 mM), the MLC (Tritrichomonas foetus; isolate FT.3741, aerobic) was 28 mg/mL (≈ 19.7 mM) and the MLC (Tritrichomonas foetus; isolate FT.3741, anaerobic) was 28 mg/mL (≈ 19.7 mM). It also gave an MLC (Tritrichomonas foetus; isolate S10, aerobic) of 28 mg/mL (≈ 19.7 mM), an MLC (Tritrichomonas foetus; isolate S10, anaerobic) of 28 mg/mL (≈ 19.7 mM) and an MLC (Tritrichomonas foetus; isolate TF.7, aerobic) of 28 mg/mL (≈ 19.7 mM). The MLC (Tritrichomonas foetus; isolate TF.7, anaerobic) was 28 mg/mL (≈ 19.7 mM), the MLC (Tritrichomonas gallinae; aerobic) was 2000 IU/ml and the MLC (Tritrichomonas gallinae; anaerobic) was 1500 IU/ml. For the same compound, the MLC (Tritrichomonas gallinae; [4]) was 1,500-2,000 IU/ml, the MLC (Tritrichomonas gallinae; [5]) was 21.43 to 28.57 mg/mL and the MICs (Giardia lamblia) was 28.6 to 35.7 mg/mL. For the same compound, the “MLC (first of the two columns per drug)” value (Giardia lamblia; [6]) was 2500 IU/ml and 2000 IU/ml, the “MLC (second of the two columns per drug)” value (Giardia lamblia; [6]) was over 3500 IU/ml and the “Potency of the material used” value (Micrococcus uteus) was 70 I.U./mg. The parasitological cure ([2]; 51 patients, 10-20 days, 40,000 to 160,000 units) was 66% and the cure rate ([2]; 100,000 I.U. daily over ten days) was under 100%.
In the case of Zinc bacitracin, the “Cell number reduction” value ([1]; axenic culture, 1 mg/ml) is reported as 68.3%, the “Cell number reduction” value ([1]; axenic culture, 2 mg/ml) is reported as 90.6% and the “Cell number reduction” value ([1]; axenic culture, 5 mg/ml) is reported as over 99.5%. The “concentration required for lethality in axenic as opposed to xenic amoeba cultures” value ([1]; axenic versus xenic) was 2-3 times, the cure (E. histolytica; 100,000 I.U. daily for 3-5 days) was 100% and the cure rate (E. histolytica; [7]) was 55%. For the same compound, the relapse rate (E. histolytica; [7]) was 60%, the “patients relapsed (at days 6 and 10)” value (E. histolytica; [8]) was 16% and the primary cure rate (E. histolytica; [8]) was 100%. The treatment outcome (E. histolytica; Group 1, two patients treated for 1 day) was “without success”, the “subjects showing parasites in their stools again after two weeks” value (E. histolytica; Group 3 asymptomatic cyst passers, five-day regimen, 9 subjects) was 44% and the “Number Relapsing” value (E. histolytica; [9]) was 0. For the same compound, the “Number Responding” value (E. histolytica; [9]) was 5, the “Number Relapsing” value (E. histolytica; [10]) was 0 and the “Number Responding” value (E. histolytica; [10]) was 9. For the same compound, the “Number Relapsing” value (E. histolytica; [11]) was 1, the “Number Responding” value (E. histolytica; [11]) was 1 and the “Number Relapsing” value (E. histolytica; [12]) was 3. For the same compound, the “Number Responding” value (E. histolytica; [12]) was 5, the “Number Relapsing” value (E. histolytica; [13]) was 2 and the “Number Responding” value (E. histolytica; [13]) was 12. The “Number Relapsing” value (E. histolytica; [14]) was 1, the “Number Responding” value (E. histolytica; [14]) was 5 and the “Number Relapsing” value (E. histolytica; [15]) was 1. The “Number Responding” value (E. histolytica; [15]) was 5, the “Number Relapsing” value (E. histolytica; [16]) was 2 and the “Number Responding” value (E. histolytica; [16]) was 8. The “Number Relapsing” value (E. histolytica; [17]) was 4, the “Number Responding” value (E. histolytica; [17]) was 9 and the side effects (E. histolytica; all patients of the amoebiasis clinical study, 100,000 I.U. daily) was “No side effects were reported”. The cure rate (E. histolytica; dose-effect study, 9 patients treated for 10 days) was 100%, the MIC (Trichomonas vaginalis; T. vaginalis isolate 1910) was 2.50 to 5.00 mg/mL and the MIC (Trichomonas vaginalis; T. vaginalis isolate UCH1) was 2.50 mg/mL. For the same compound, the MLC (Tritrichomonas foetus; isolate 121, aerobic) was 6 mg/mL, the MLC (Tritrichomonas foetus; isolate 121, anaerobic) was 6 mg/mL and the MLC (Tritrichomonas foetus; isolate 138, aerobic) was 6 mg/mL. For the same compound, the MLC (Tritrichomonas foetus; isolate 138, anaerobic) was 6 mg/mL, the MLC (Tritrichomonas foetus; isolate ATCC 30166, aerobic) was 6 mg/mL and the MLC (Tritrichomonas foetus; isolate ATCC 30166, anaerobic) was 6 mg/mL. The MLC (Tritrichomonas foetus; isolate FT.3741, aerobic) was 6 mg/mL, the MLC (Tritrichomonas foetus; isolate FT.3741, anaerobic) was 5 mg/mL and the MLC (Tritrichomonas foetus; isolate S10, aerobic) was 6 mg/mL. For the same compound, the MLC (Tritrichomonas foetus; isolate S10, anaerobic) was 6 mg/mL, the MLC (Tritrichomonas foetus; isolate TF.7, aerobic) was 6 mg/mL and the MLC (Tritrichomonas foetus; isolate TF.7, anaerobic) was 6 mg/mL. The MLC (Tritrichomonas gallinae; aerobic) was 250 IU/ml, the MLC (Tritrichomonas gallinae; anaerobic) was 300 IU/ml and the MLC (Tritrichomonas gallinae; [4]) was 250-300 IU/ml. For the same compound, the MLC (Tritrichomonas gallinae; [5]) was 3.91 to 4.87 mg/mL, the “MLC (second of the two columns per drug)” value (Giardia lamblia; [6]) was > 400 IU/ml and 300 IU/ml and the MICs (Giardia lamblia; Portland isolate, converted from IU/ml) was 2.3 to 6.3 mg/mL. For the same compound, the “patients remaining clear of infection for the length of the study” value (G. lamblia; [18]) was “Eight”, the patients responding (G. lamblia; [18]) was 11 and the patients responding (G. lamblia; ten metronidazole-resistant patients in Sweden) was 6. For the same compound, the “Potency of the material used” value (Micrococcus uteus) was 65 I.U./mg, the “mutation frequency at the TK gene locus” value (mouse lymphoma cell) was “no significant increase in the mutation frequency” and the “damage to chromosomal structure” value [3] was “did not induce any damage to the chromosomal structure”. For the same compound, the nucleoid sedimentation velocity (spleen cells of rats) was “Only a small reduction in nucleoid sedimentation velocity”.
